Data published in patent US9750724B2, “Use of an aromatase inhibitor for the treatment of hypogonadism and related diseases” (Mereo BioPharma 2 Limited, priority 2011, dated 2017).
Where two headings read alike, the source gives them in different places.

Assays:
[1] = tested on: serum testosterone, estradiol, LH and FSH; conditions: 2.5 mg weekly, cited from earlier work; for free testosterone: fixed dosing interval
[2] = Single ascending dose study in pre- and post-menopausal women, pharmacokinetics; type: in vivo, human; conditions: female, human, in vivo, 2.5 mg
From the text: The drug concentration in plasma and/or serum samples can be determined by a number of different ways, e.g. HPLC or LC-MS/MS analyses. […]
A minimal toxic dose (MTD) was not reached. […] Table 3 presents the PK parameters based on preliminary analysis of the concentration-time profile obtained from this study.

Tmax [2]: 1 h | AUC(0-t) ([2]; AUC (0-tlast) Mean): 1670 ng·h/mL | Cmax ([2]; Cmax Mean): 33.5 ng/mL | half-life ([2]; T1/2 Mean): 69.6 h
SMILES: N#Cc1ccc(C(c2ccc(C#N)cc2)n2cncn2)cc1 [Letrozole, letrozole]
LH and FSH ([1]; 12 OHH men): increased LH and FSH | total estradiol ([1]; 12 OHH men): suppressed total estradiol | total testosterone ([1]; 12 OHH men, de Boer 2005, Loves 2008): increased total testosterone into the normal range | free testosterone [1]: rose above the normal range in approximately half of the subjects | free testosterone ([1]; listed as letrozole): excessive free testosterone levels in approximately half the subjects
